The test system of assay [1] is chimeric replicon with genotype 2b NS5B. In words: microbe, parasite or virus in culture. The class given is cell-based, HCV genotype 2b. The following applies: Hepatitis C virus, read-out: 2b chimera 5% FBS EC50.
The subject of assay [2] is HCV 1b-BB7 subgenomic replicon. In words: microbe, parasite or virus in culture. Format: cell-based, HCV genotype 1b. Particulars: Hepatitis C virus, stable replicon.
Assay [3] has as its target T1, HCV NS5B polymerase 1b BK strain (Hepatitis C virus genotype 1b, UniProt P26663).
T1 construct: six-histidine tag; made in house; host or cells: E. coli
Put plainly: HCV NS5B polymerase enzymatic inhibition assay, strain 1b BK. Format: biochemical. Particulars: enzyme, strain 1b BK; read-out: HCV Polymerase Strain 1b BK IC50. In outline: (§1)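 Recombinant NS5B (residues 1–570, His-tagged, E. coli-expressed) copied 5 nM of a 2.1 kb HCV 1b negative-strand 3′-end RNA template with 20 μM CTP, 20 μM ATP and 0.284 μM [3H]UTP for 3 h at 30 °C. Spermine-precipitated RNA was filter-captured and counted, and IC50 was fitted by nonlinear regression.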

The test system of assay [4] is chimeric replicon with genotype 3a NS5B. Put plainly: microbe, parasite or virus in culture. Particulars: Hepatitis C virus, read-out: 3a chimera 5% FBS EC50. The class given is cell-based, HCV genotype 3a.
Assay [5] relates to chimeric replicon with genotype 4a NS5B. In words: microbe, parasite or virus in culture. The class given is cell-based, HCV genotype 4a. Particulars: Hepatitis C virus, read-out: 4a chimera 5% FBS EC50.
Assay [6] has as its target T2, HCV NS5B polymerase 1a-H77-C316Y (Hepatitis C virus genotype 1a, UniProt P27958, C2736Y).
T2 construct: six-histidine tag; made in house; host or cells: E. coli
In words: biochemical. Further details: species or system HCV genotype 1a. In short, it runs like this:
as §1

Assay [7] concerns the target T3, HCV NS5B polymerase 1a-H77 (Hepatitis C virus genotype 1a, UniProt P27958).
T3 construct: six-histidine tag; made in house; host or cells: E. coli
Put plainly: biochemical. Further details: species or system HCV genotype 1a. The following applies: enzyme, strain 1a H77; read-out: HCV Polymerase Strain 1a H77 IC50. In outline:
as §1

Assay [8] relates to HCV NS5B polymerase 1a-H77-C316Y. Put plainly: biochemical. Further details: species or system HCV genotype 1a. Particulars: ratio of enzyme IC50s, 1a H77-C316Y / 1a H77. In outline: as §1
The subject of assay [9] is HCV 1a-H77 subgenomic replicon. In words: microbe, parasite or virus in culture. Format: cell-based, HCV genotype 1a. Particulars: Hepatitis C virus, stable replicon. In general terms: In antiviral work, replicon cells carry a viral genome segment that copies itself.
Assay [10] has as its system HCV 1a-H77 C316Y mutant subgenomic replicon. In words: Stable replicon cell culture assay (luciferase), 1a-H77-C316Y mutant. The following applies: for EC50: Hepatitis C virus, read-out: Stable Replicon 1a H77-C316Y 5% FBS EC50; for Stable Replicon Fold Resistance C316Y/1a: ratio of stable replicon EC50s, C316Y / 1a H77. The class given is cell-based, HCV genotype 1a.
Assay [11] relates to chimeric replicon with 2a-J6CF-derived NS5B. In words: microbe, parasite or virus in culture. The following applies: Hepatitis C virus, read-out: 2a chimera 5% FBS EC50. The class given is cell-based, HCV genotype 2a.
Assay [12] deals with HCV 1a-H77 transient subgenomic replicon in Huh-7 derived cell line. Put plainly: microbe, parasite or virus in culture. Format: cell-based, HCV genotype 1a. The following applies: Hepatitis C virus, Huh-7; transient replicon, 5% FBS; read-out: Transient Replicon 1a H77 5% FBS EC50. In outline: (§2)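 Transient format: T7-transcribed replicon RNA lacking Neo, electroporated into Huh-7-derived cells (5×10^3/well), input RNA checked by luciferase at 4 h. Three-fold compound dilution series, 0.5% DMSO, 4 days at 37° C; EC50 from luciferase signal in lysed cells.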

The subject of assay [13] is HCV 1a-H77-C316Y transient subgenomic replicon in Huh-7 derived cell line. Put plainly: microbe, parasite or virus in culture. Format: cell-based, HCV genotype 1a. In short, it runs like this: as §2
Setting [14] is: strain 1b BB7, 5% FBS + 40% human plasma, read-out: 1b BB7 5% FBS + 40% Human Plasma EC50.
[15] abbreviates: strain 1b BB7, 5% FBS, no human plasma, read-out: 1b BB7 5% FBS EC50.
Setting [16] is: strain 1b BB7, 5% FBS, read-out: 1b BB7 5% FBS EC50.
Where [17] appears, read: 5% FBS, absence of human plasma, read-out: Stable Replicon 1a H77 5% FBS EC50.
The mark [18] stands for this setting: strain 1a H77, 5% FBS + 40% human plasma, read-out: 1a H77 5% FBS + 40% Human Plasma EC50.
Where [19] appears, read: strain 1a H77, 5% FBS, no human plasma, read-out: 1a H77 5% FBS EC50.
Where [20] appears, read: strain 1a H77, 5% FBS, read-out: 1a H77 5% FBS EC50.

Where two headings read alike, the source gives them in different places.

T1 sequence (P26663 2420-2989): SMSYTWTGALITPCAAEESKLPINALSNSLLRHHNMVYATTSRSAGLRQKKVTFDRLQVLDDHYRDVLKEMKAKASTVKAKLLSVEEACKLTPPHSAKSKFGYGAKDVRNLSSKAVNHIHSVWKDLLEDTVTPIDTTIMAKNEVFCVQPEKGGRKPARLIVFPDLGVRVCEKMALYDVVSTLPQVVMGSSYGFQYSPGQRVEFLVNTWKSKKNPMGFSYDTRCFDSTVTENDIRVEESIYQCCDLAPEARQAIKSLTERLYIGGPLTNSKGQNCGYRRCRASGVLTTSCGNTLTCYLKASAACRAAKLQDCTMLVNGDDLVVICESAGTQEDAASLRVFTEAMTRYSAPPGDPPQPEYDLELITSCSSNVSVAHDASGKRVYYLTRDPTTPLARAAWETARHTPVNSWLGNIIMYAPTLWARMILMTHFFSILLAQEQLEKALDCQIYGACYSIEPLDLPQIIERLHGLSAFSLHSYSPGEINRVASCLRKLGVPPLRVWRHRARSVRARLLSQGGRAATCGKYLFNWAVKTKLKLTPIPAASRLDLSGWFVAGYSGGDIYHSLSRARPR
T3 sequence (P27958 2421-2990): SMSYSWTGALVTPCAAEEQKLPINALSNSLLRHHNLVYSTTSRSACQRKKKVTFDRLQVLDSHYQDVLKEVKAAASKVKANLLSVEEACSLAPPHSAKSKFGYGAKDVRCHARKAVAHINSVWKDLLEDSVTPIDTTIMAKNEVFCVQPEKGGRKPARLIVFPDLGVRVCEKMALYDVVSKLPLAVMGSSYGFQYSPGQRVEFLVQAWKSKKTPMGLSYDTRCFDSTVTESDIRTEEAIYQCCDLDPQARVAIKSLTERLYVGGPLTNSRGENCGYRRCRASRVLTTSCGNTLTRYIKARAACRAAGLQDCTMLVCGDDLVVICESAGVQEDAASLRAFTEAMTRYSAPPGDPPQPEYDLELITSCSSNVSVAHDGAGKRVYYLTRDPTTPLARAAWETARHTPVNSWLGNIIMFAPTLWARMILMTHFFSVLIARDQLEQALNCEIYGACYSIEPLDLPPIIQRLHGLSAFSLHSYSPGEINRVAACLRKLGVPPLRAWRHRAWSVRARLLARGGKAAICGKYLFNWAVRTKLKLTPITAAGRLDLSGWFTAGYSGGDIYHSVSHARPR
T2 sequence (P27958 2421-2990 C2736Y): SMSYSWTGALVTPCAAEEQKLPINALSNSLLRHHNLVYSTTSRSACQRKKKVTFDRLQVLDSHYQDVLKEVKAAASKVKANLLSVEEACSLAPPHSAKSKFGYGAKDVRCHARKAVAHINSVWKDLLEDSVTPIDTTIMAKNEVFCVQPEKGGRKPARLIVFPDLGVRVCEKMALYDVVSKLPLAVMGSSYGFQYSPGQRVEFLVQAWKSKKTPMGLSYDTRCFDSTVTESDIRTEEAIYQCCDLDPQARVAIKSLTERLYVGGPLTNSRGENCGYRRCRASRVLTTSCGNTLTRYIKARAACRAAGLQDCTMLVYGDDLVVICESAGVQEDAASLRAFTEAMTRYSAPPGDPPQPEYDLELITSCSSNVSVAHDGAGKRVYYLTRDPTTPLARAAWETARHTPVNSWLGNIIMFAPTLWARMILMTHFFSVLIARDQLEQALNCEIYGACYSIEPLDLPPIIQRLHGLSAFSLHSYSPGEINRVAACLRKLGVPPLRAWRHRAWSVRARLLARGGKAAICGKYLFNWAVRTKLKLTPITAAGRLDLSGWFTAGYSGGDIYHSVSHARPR

In the case of `CS(=O)(=O)N(CCc1csc(N)n1)c1cc2oc(-c3ccc(F)cc3)c(-c3ncc[nH]3)c2cc1C1CC1` [Example 97, N-[2-(2-amino-1,3-thiazol-4-yl)ethyl]-N-[5-cyclopropyl-2-(4-fluorophenyl)-3-(1H-imidazol-2-yl)-1-benzofuran-6-yl]methanesulfonamide], the concentration for a half-maximal effect (EC50) in assay [1] was 895 nM; in [2] (setting [14]) it was 644 nM; in assay [2] (setting [15]) it was 62 nM; in [2] (setting [16]), 62 nM; in [4] it was 36 nM; in [5] it was 528 nM. The EC50 in assay [9] (setting [17]) came to 108 nM; in assay [9] (setting [18]), 721 nM; in assay [9] (setting [19]), 108 nM; in assay [9] (setting [20]), 108 nM; in assay [10], 3770 nM; in assay [11] it was 595 nM. Besides, the IC50 in [3] was determined as 39 nM; in [6] it was 549 nM; in [7], 6 nM. The “C316Y/1a Fold Resistance” value in [8] is on record as 92 fold. Moreover, in assay [10], the “Stable Replicon Fold Resistance C316Y/1a” value came out at 34.9 fold.

As for `CC1NC(c2c(-c3ccc(F)cc3)oc3cc(N(CCO)S(C)(=O)=O)c(C4CC4)cc23)=NO1` (stereo not shown) [Example 158, N-[5-cyclopropyl-2-(4-fluorophenyl)-3-(5-methyl-4,5-dihydro-1,2,4-oxadiazol-3-yl)-1-benzofuran-6-yl]-N-(2-hydroxyethyl)methanesulfonamide], the EC50 was 205 nM in assay [1]; 335 nM in assay [2] (setting [14]); 23.5 nM in assay [2] (setting [15]); 23.5 nM in [2] (setting [16]); 43 nM in assay [4]; 176 nM in assay [5]. Besides, the EC50 was 19.5 nM in [12]; 304 nM in [13] (Hepatitis C virus, Huh-7, read-out: Transient Replicon 1a H77-C316Y 5% FBS EC50); 23.3 nM in assay [9] (setting [17]); 260 nM in assay [9] (setting [18]); 23.3 nM in assay [9] (setting [19]); 23.3 nM in assay [9] (setting [20]). Moreover, the results for the EC50 in assay [10] and in assay [11] were 1150 nM and 302 nM, respectively. Moreover, the results for the IC50 in assay [3], in assay [6] and in assay [7] were 36.3 nM, 160 nM and 8.3 nM, respectively. Besides, the “Transient Replicon Fold Resistance C316Y/1a” value in assay [13] (ratio of transient replicon EC50s, C316Y / 1a H77) worked out at 16 fold. Further, the “C316Y/1a Fold Resistance” value in [8] was 19 fold. The “Stable Replicon Fold Resistance C316Y/1a” value in assay [10] is 49.4 fold.

As to `CS(=O)(=O)N(CCCc1nsc(=O)[nH]1)c1cc2oc(-c3ccc(F)cc3)c(-c3ncc[nH]3)c2cc1C1CC1` [Example 178, N-[5-cyclopropyl-2-(4-fluorophenyl)-3-(1H-imidazol-2-yl)-1-benzofuran-6-yl]-N-[3-(5-oxo-4,5-dihydro-1,2,4-thiadiazol-3-yl)propyl]methanesulfonamide], the EC50 in [1] was found to be 91.3 nM; in [2] (setting [14]), 274 nM; in assay [2] (setting [15]), 18 nM; in assay [2] (setting [16]), 18 nM; in assay [4], 24.4 nM; in assay [5] it was 239 nM. Moreover, the EC50 in assay [9] (setting [17]) came to 54.4 nM; in [9] (setting [18]), 431 nM; in assay [9] (setting [19]), 54.4 nM; in assay [9] (setting [20]) it was 54.4 nM; in [10], 544 nM; in assay [11] it was 116 nM. The values for the IC50 in [3], in [6] and in assay [7] were 65 nM, 828 nM and 13 nM, respectively. In [8], the “C316Y/1a Fold Resistance” value turned out to be 64 fold. For the same compound, in assay [10], the “Stable Replicon Fold Resistance C316Y/1a” value amounted to 10.0 fold.

For the compound `CS(=O)(=O)N(CCCc1n[nH]c(=O)o1)c1cc2oc(-c3ccc(F)cc3)c(-c3ncc[nH]3)c2cc1C1CC1` [Example 179, N-[5-cyclopropyl-2-(4-fluorophenyl)-3-(1H-imidazol-2-yl)-1-benzofuran-6-yl]-N-[3-(5-oxo-4,5-dihydro-1,3,4-oxadiazol-2-yl)propyl]methanesulfonamide], the EC50 in [1] was determined as 84.9 nM; in assay [2] (setting [14]) it was 78 nM; in assay [2] (setting [15]), 9 nM; in [2] (setting [16]) it was 9 nM; in assay [4] it was 10.5 nM; in assay [5], 77.8 nM. The EC50 amounted to 9.8 nM in [9] (setting [17]); 52 nM in assay [9] (setting [18]); 9.8 nM in [9] (setting [19]); 9.8 nM in assay [9] (setting [20]); 686 nM in assay [10]; 66 nM in [11]. Besides, the IC50 in assay [3] amounted to 25 nM; in [6] it was 45 nM; in assay [7], 4 nM. The “C316Y/1a Fold Resistance” value in assay [8] amounted to 11 fold. In assay [10], the “Stable Replicon Fold Resistance C316Y/1a” value was determined as 70.0 fold.

As to `CS(=O)(=O)N(CCCCO)c1cc2oc(-c3ccc(F)cc3)c(-c3noc(=O)[nH]3)c2cc1C1CC1` [Example 185, N-[5-cyclopropyl-2-(4-fluorophenyl)-3-(5-oxo-4,5-dihydro-1,2,4-oxadiazol-3-yl)-1-benzofuran-6-yl]-N-(4-hydroxybutyl)methanesulfonamide], the EC50 in [1] is 1000 nM; in [2] (setting [14]) it was 10000 nM; in [2] (setting [15]) it was 1000 nM; in assay [2] (setting [16]) it was 1000 nM; in [4], 770 nM; in [5], more than 1000 nM. Further, the EC50 in assay [9] (setting [17]) was 1000 nM; in assay [9] (setting [18]), 10000 nM; in assay [9] (setting [19]), 1000 nM; in [9] (setting [20]) it was 1000 nM; in assay [10], 10000 nM; in assay [11], 1000 nM. The IC50 in assay [3] came to 9000 nM; in [6], 20000 nM; in [7] it was 2300 nM. Also, the “C316Y/1a Fold Resistance” value in [8] was found to be 9 fold. For the same compound, the “Stable Replicon Fold Resistance C316Y/1a” value in assay [10] is 10.0 fold.

The EC50 is the midpoint of the concentration-response curve. What is called IC50 is the concentration that gives 50% inhibition.

Values taken from patent US20160355530A1, “HEPATITIS C INHIBITORS AND USES THEREOF” (AbbVie Inc., priority 2010, published 2016).
